The numbers were not newly measured in patent US6503496B2, “Non-alcoholic and hypoallergenic face cream for the treatment of razor bumps” (priority 2000, dated 2003), which cites them from elsewhere.

Test in data set [1]: not given
The source holds these as a separate data set.

For the molecule `O=C([O-])CN(CCN(CC(=O)[O-])CC(=O)O)CC(=O)[O-].[Na+].[Na+].[Na+]` [Trisodium EDTA], the “toxicity on the skin” value is “No known toxicity”.
For Aluminium Polyhydrate, in data set [1] (alkaline solution), the “solubility in alkaline solution” value is on record as “soluble”. Moreover, the solubility in water entry in data set [1] (water) is “Practically insoluble”.
